Experimental findings from US20230303540A1 (Merck Sharp & Dohme LLC, priority 2020, published 2023) are described below.

For this assay, the target named is GST-tagged truncated human mutant G2019S LRRK2 (Homo sapiens, UniProt Q5S007, G2019S). Description: LRRK2 G2019S Km ATP LanthaScreen assay. Format: biochemical. The settings on record: 134 μM ATP (Km ATP), LRRKtide substrate, mean IC50 values; read-out: LRRK2 pIC50 (converted). The method, boiled down: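 LanthaScreen TR-FRET read with fluorescein-LRRKtide and 134 μM ATP (Km) in Tris pH 8.5/10 mM MgCl2 buffer. The enzyme was preincubated 15 min with compound at room temperature, and the reaction ran 90 min at ambient temperature. Stopped with EDTA plus Tb anti-phospho-LRRKtide antibody; the 520/495 nm ratio gave a 4-parameter logistic IC50, mean of several runs.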
On the technique in general: Time-resolved FRET reads energy transfer from a long-lived donor to a nearby acceptor.
Take `Cc1c(Nc2ncc3cc(Cl)c(N4CCN(C5(C)COC(C)(C)C5)CC4)cc3n2)cnn1C1CC1` (single isomer, unassigned) [Ex-12.2]: the IC50 is 0.721 nM.

For `Cc1c(Nc2ncc3cc(Cl)c(N4CCN(C5(C)COC(C)(C)C5)CC4)cc3n2)cnn1C1CC1` (single isomer, unassigned) [Ex-12.3], the IC50 is 186 nM.

`Cc1c(Nc2ncc3cc(Cl)c(N4CCN(C5COC(C)(C)C5)CC4)cc3n2)cnn1C1CC1` (single isomer, unassigned) [Ex-12.5, 6-chloro-N-(1-cyclopropyl-5-methyl-1H-pyrazol-4-yl)-7-(4-(5,5-dimethyltetrahydrofuran-3-yl)piperazin-1-yl)quinazolin-2-amine]: the IC50 was 0.56 nM.

As for `CC1CN(c2cc3nc(Nc4cnn(C5CC5)c4Cl)ncc3cc2Cl)CCN1C1COCC1O` (single isomer, unassigned) [Ex-12.6, (3S,4S) or (3R, 4R)-4-((R) or (S)-4-(4-(6-chloro-2-((5-chloro-1-cyclopropyl-1H-pyrazol-4-yl)amino)quinazolin-7-yl)-2-methylpiperazin-1-yl)tetrahydrofuran-3-ol], the IC50 is 13.6 nM.

For `CC1CN(c2cc3nc(Nc4cnn(C5CC5)c4Cl)ncc3cc2Cl)CCN1C1COCC1O` (single isomer, unassigned) [Ex-12.7, (3S,4S) or (3R, 4R)-4-((R) or (S)-4-(4-(6-chloro-2-((5-chloro-1-cyclopropyl-1H-pyrazol-4-yl)amino)quinazolin-7-yl)-2-methylpiperazin-1-yl)tetrahydrofuran-3-ol], the IC50 is 4.36 nM.

With `CC1CN(C2COCC2O)CCN1c1cc2nc(Nc3cnn(C4CC4)c3Cl)ncc2cc1Cl` (single isomer, unassigned) [Ex-12.8, (3S,4S) or (3R, 4R)-4-((R) or (S)-4-(6-chloro-2-((5-chloro-1-cyclopropyl-1H-pyrazol-4-yl)amino)quinazolin-7-yl)-3-methylpiperazin-1-yl)tetrahydrofuran-3-ol], the IC50 was 0.088 nM.

In the case of `CC1CN(C2COCC2O)CCN1c1cc2nc(Nc3cnn(C4CC4)c3Cl)ncc2cc1Cl` (single isomer, unassigned) [Ex-12.9, (3S,4S) or (3R, 4R)-4-((R) or (S)-4-(6-chloro-2-((5-chloro-1-cyclopropyl-1H-pyrazol-4-yl)amino)quinazolin-7-yl)-3-methylpiperazin-1-yl)tetrahydrofuran-3-ol], the IC50 was 8.64 nM.

For `O[C@@H]1COC[C@@H]1N1CCN(c2cc3nc(Nc4cnn(C56CC(C5)C6)c4Cl)ncc3cc2Cl)CC1` (single isomer, unassigned) [Ex-13.2, (3S,4S) or (3R,4R)-4-(4-(2-((1-(bicyclo[1.1.1]pentan-1-yl)-5-chloro-1H-pyrazol-4-yl)amino)-6-chloroquinazolin-7-yl)piperazin-1-yl)tetrahydrofuran-3-ol], the IC50 was 3.81 nM.

`Cc1cc2cnc(Nc3cnn(C45CC(C4)C5)c3Cl)nc2cc1N1CCN(C2COCC2O)CC1` (single isomer, unassigned) [Ex-13.3, (3S,4S) or (3R, 4R)-4-(4-(2-((1-(bicyclo[1.1.1]pentan-1-yl)-5-chloro-1H-pyrazol-4-yl)amino)-6-methylquinazolin-7-yl)piperazin-1-yl)tetrahydrofuran-3-ol]: the IC50 is 6.98 nM.

Turning to `Cc1cc2cnc(Nc3cnn(C45CC(C4)C5)c3Cl)nc2cc1N1CCN(C2(C)COCC2O)CC1` (single isomer, unassigned) [Ex-13.4, (3S,4S) or (3R, 4R)-4-(4-(2-((1-(bicyclo[1.1.1]pentan-1-yl)-5-chloro-1H-pyrazol-4-yl)amino)-6-methylquinazolin-7-yl)piperazin-1-yl)-4-methyltetrahydrofuran-3-ol], the IC50 was 0.267 nM.

Regarding `Cc1cc2cnc(Nc3cnn(C45CC(C4)C5)c3Cl)nc2cc1N1CCN(C2(C)COCC2O)CC1` (single isomer, unassigned) [Ex-13.5, (3S,4S) or (3R, 4R)-4-(4-(2-((1-(bicyclo[1.1.1]pentan-1-yl)-5-chloro-1H-pyrazol-4-yl)amino)-6-methylquinazolin-7-yl)piperazin-1-yl)-4-methyltetrahydrofuran-3-ol], the IC50 was 9.89 nM.

For the molecule `Cc1c(Nc2ncc3cc(Cl)c(N4CCN(C5COCC5O)CC4)cc3n2)cnn1C(F)F` (single isomer, unassigned) [Ex-13.6, (3S,4S) or (3R,4R)-4-(4-(6-chloro-2-((1-(difluoromethyl)-5-methyl-1H-pyrazol-4-yl)amino)quinazolin-7-yl)piperazin-1-yl)tetrahydrofuran-3-ol], the IC50 was 0.668 nM.

In the case of `Cc1c(Nc2ncc3cc(Cl)c(N4CCN(C5COCC5O)CC4)cc3n2)cnn1C(F)F` (single isomer, unassigned) [Ex-13.7, (3S,4S) or (3R, 4R)-4-(4-(6-chloro-2-((1-(difluoromethyl)-5-methyl-1H-pyrazol-4-yl)amino)quinazolin-7-yl)piperazin-1-yl)tetrahydrofuran-3-ol], the IC50 was 31.6 nM.

Consider `CC1(N2CCN(c3cc4nc(Nc5cnn(C67CC(F)(C6)C7)c5Cl)ncc4cc3Cl)CC2)COCC1O` (single isomer, unassigned) [Ex-13.8, (3S,4S) or (3R,4R)4-(4-(6-chloro-2-((5-chloro-1-(3-fluorobicyclo[1.1.1]pentan-1-yl)-1H-pyrazol-4-yl)amino)quinazolin-7-yl)piperazin-1-yl)-4-methyltetrahydrofuran-3-ol], for which the IC50 was 1.69 nM.

For the molecule `Cc1cc(Nc2ncc3cc(Cl)c(N4CCN(C5(C)COCC5O)[C@@H](C)C4)cc3n2)n(C2CC2)n1` (single isomer, unassigned) [Ex-13.9, 4-((S or R) (3S,4S) or (3R,4R)-4-(6-chloro-2-((1-cyclopropyl-3-methyl-1H-pyrazol-5-yl)amino)quinazolin-7-yl)-2-methylpiperazin-1-yl)-4-methyltetrahydrofuran-3-ol], the IC50 was 97.5 nM.

`CCn1ncc(Nc2ncc3ccc(N4C(=O)[C@@H]5CC[C@H]4C5)nc3n2)c1C` (single isomer, unassigned) [Ex-15.3, (1S,4R) or (1R,4S)-2-{2-[(1-ethyl-5-methyl-1H-pyrazol-4-yl)amino]pyrido[2,3-d]pyrimidin-7-yl}-2-azabicyclo[2.2.1]heptan-3-one]: the IC50 is 4.43 nM.

In the case of `CCn1ncc(Nc2ncc3ccc(N4C(=O)[C@H]5CC[C@@H]4C5)nc3n2)c1C` (single isomer, unassigned) [Ex-15.4, (1S,4R) or (1R,4S)-2-{2-[(1-ethyl-5-methyl-1H-pyrazol-4-yl)amino]pyrido[2,3-d]pyrimidin-7-yl}-2-azabicyclo[2.2.1]heptan-3-one], the IC50 is 12.5 nM.

Turning to `O[C@@H]1COC[C@@H]1N1CCN(c2nc3nc(Nc4cnn(C5CC5)c4Cl)ncc3cc2Cl)CC1` (single isomer, unassigned) [Ex-16.1, (3S,4S) or (3R, 4R)-4-(4-(6-Chloro-2-((5-chloro-1-cyclopropyl-1H-pyrazol-4-yl)amino)pyrido[2,3-d]pyrimidin-7-yl)piperazin-1-yl)tetrahydrofuran-3-ol], the IC50 is 15.6 nM.

In the case of `O[C@@H]1COC[C@@H]1N1CCN(c2nc3nc(Nc4cnn(C5CC5)c4Cl)ncc3cc2Cl)CC1` (single isomer, unassigned) [Ex-16.2, (3S,4S) or (3R, 4R)-4-(4-(6-Chloro-2-((5-chloro-1-cyclopropyl-1H-pyrazol-4-yl)amino)pyrido[2,3-d]pyrimidin-7-yl)piperazin-1-yl)tetrahydrofuran-3-ol], the IC50 was 126 nM.

`Cc1c(Nc2ncc3cc(Cl)c(N4CCN(C5COCC5O)CC4)nc3n2)cnn1C1CC1` (single isomer, unassigned) [Ex-16.3, (3S,4S) or (3R,4R)-4-(4-{6-chloro-2-[(1-cyclopropyl-5-methyl-1H-pyrazol-4-yl)amino]pyrido[2,3-d]pyrimidin-7-yl}piperazin-1-yl)oxolan-3-ol]: the IC50 is 4.55 nM.

As to `Cc1c(Nc2ncc3cc(Cl)c(N4CCN(C5COCC5O)CC4)nc3n2)cnn1C1CC1` (single isomer, unassigned) [Ex-16.4, (3S,4S) or (3R,4R)-4-(4-{6-chloro-2-[(1-cyclopropyl-5-methyl-1H-pyrazol-4-yl)amino]pyrido[2,3-d]pyrimidin-7-yl}piperazin-1-yl)oxolan-3-ol], the IC50 was 83.8 nM.

For `C[C@H]1COC(=O)N1c1ccc2cnc(Nc3cnn(C4CCN(C5COC5)CC4F)c3Cl)nc2c1` (stereo in doubt) [Ex-7.3, (4S)-3-[2-({5-chloro-1-[(3S,4S)-3-fluoro-1-(oxetan-3-yl)piperidin-4-yl]-1H-pyrazol-4-yl}amino)quinazolin-7-yl]-4-methyl-1,3-oxazolidin-2-one], the IC50 is 0.976 nM.

As to `Cc1c(Nc2ncc3cc(Cl)c(N4CCN(C)C(C)(C)C4)cc3n2)cnn1CC(F)F` [Ex-1.3], the IC50 is 180 nM.

As for `F[C@H]1CN(C2COC2)CC[C@@H]1n1ncc(Nc2ncc3cc(Cl)c(N4CCC5(CC4)COC5)cc3n2)c1Cl` [Ex-1.4, 6-chloro-N-{5-chloro-1-[(3S,4S)-3-fluoro-1-(oxetan-3-yl)piperidin-4-yl]-1H-pyrazol-4-yl}-7-(2-oxa-7-azaspiro[3.5]nonan-7-yl)quinazolin-2-amine], the IC50 is 1.54 nM.

For `Cc1c(Nc2ncc3ccc(N4[C@H](C)CC[C@H]4C)cc3n2)cnn1CCF` [Ex-1.12, (2R,5S or 2,5R)-7-[2,5-dimethylpyrrolidin-1-yl]-N-[1-(2-fluoroethyl)-5-methyl-1H-pyrazol-4-yl]quinazolin-2-amine], the IC50 is 20.2 nM.

As to `CN1CCC2(CCN(c3cc4nc(Nc5cnn(CC(C)(C)O)c5Cl)ncc4cc3Cl)C2)C1` (stereo not drawn) [Ex-1.13, 1-(5-chloro-4-{[6-chloro-7-(7-methyl-2,7-diazaspiro[4.4]nonan-2-yl)quinazolin-2-yl]amino}-1H-pyrazol-1-yl)-2-methylpropan-2-ol], the IC50 was 21 nM.

For the molecule `CC1(O)CCN(c2cc3nc(Nc4cnn(CC(F)F)c4Cl)ncc3cc2Cl)C1` (stereo not drawn) [Ex-1.14, 1-(6-chloro-2-{[5-chloro-1-(2,2-difluoroethyl)-1H-pyrazol-4-yl]amino}quinazolin-7-yl)-3-methylpyrrolidin-3-ol], the IC50 is 4.71 nM.
